Reference: patent US20060194776A1, “Compositions and methods for treating tissue ischemia” (priority 2003, published 2006)
Like-named read-outs stand apart in the source and are kept apart here.

Assays:
[1] = test system: FVB mice after MI (LAD ligation)
Method: (§1) Eight-week old male FVB mice were anesthetized with sodium pentobarbital (50 mg/kg IP). The animals were intubated orally with a 22G IV catheter and artificially ventilated with a respirator (Harvard Apparatus). A left intercostal thoracotomy was performed and the ribs were retracted with 5-0 polypropylene sutures. After the pericardium was opened, the left anterior descending (LAD) branch of the left coronary artery was ligated proximal to the bifurcation between the LAD and the diagonal branch using 8-0 polypropylene sutures and visualized with a dissecting microscope. Positive end-expiratory pressure was applied to fully inflate the lungs, and the chest was closed with 7-0 polypropylene sutures. After the closure of chest wall, mice randomly received either a single subcutaneous injection of 125 μg AMD3100 (AMD group) or saline (control group). After physiological assessment at one, two and four weeks after MI, a subgroup of the mice were euthanized by intravenous administration of a lethal dose of pentobarbital.
Transthoracic echocardiography (SONOS 5500, Hewlett Packard) was performed just before MI and one, two and four weeks after MI. Left ventricular diastolic (LVDd) and systolic (LVDs) dimensions and fractional shortening were measured at the mid-papillary muscle level. Hemodynamic measurements were obtained at two and four weeks after MI using a 1.0-French high-fidelity pressure catheter (Millar Instruments, Houston, Tex.) via the left carotid artery. LV systolic pressure and maximal positive (+dP/dt) and negative (−dP/dt) pressure development were recorded after stabilization of LV function and heart rate.

EPCs in peripheral blood = test system: EPCs in peripheral blood
Method: (§2) Peripheral blood mononuclear cells (PBMNCS) were isolated from 500 μl of peripheral blood obtained from each mouse. PBMNCs were cultured in EBM media (Clonetics, San Diego, Calif.) with 5% fetal bovine serum (FBS), antibiotics, and growth factors (EPC medium) on four-well glass slides coated with rat plasma vitronectin (Sigma) in 0.5% gelatin solution. Four days after culture, EPCs, recognized as attaching spindle-shaped cells, were assayed by co-staining with acetylated LDL (acLDL)-DiI (Biomedical Technologies, Stoughton, Mass.) and Bandeiraea simplicifolia (BS-1) lectin I (Vector Laboratories, Burlingame, Calif.), indicators of endothelial lineage, and conjugated with FITC (Sigma). EPCs were identified as double-positive cells under fluorescent microscopy. The number of double-positive cells per sample, measured in fifteen fields under 20× magnification, was counted in a blinded manner.
To evaluate the effect of AMD-3100 on circulating EPC kinetics, EPC counts (cells/mm^2) were taken from peripheral blood one and two weeks after AMI. At each time point after the induction of MI, mononuclear cells were isolated from peripheral blood and total BM cells that had been obtained by flushing the tibias and femurs. EPCs were counted by culturing as described in Example 1, and stained with both acLDL-DiI and BS-1 lectin. Double positive cells were counted in 15 fields under objective 20× magnification per sample in a blinded manner.

[2] = test system: capillaries of left ventricular myocardium; conditions: two weeks after AMI
Method: (§3) The explanted hearts of sacrificed mice were sliced in a bread-loaf fashion into transverse sections from apex to base (base-, mid-, and apex-portions) and fixed with 4% paraformaldehyde. Tissues were embedded in paraffin and sectioned for elastic tissue/trichrome staining and immunohistochemistry using the murine-specific EC marker Bandeiraea simplicifolia lectin I (Isolectin B4) (Vector laboratories).
(§4) Capillary density was assessed by histological examination of five randomly selected fields of tissue sections from segments of the left ventricular myocardium served by the occluded LAD. Capillaries were recognized as tubular structures positive for isolectin B4. Elastic tissue/trichrome-stained tissues from the mice four weeks after MI were used to measure the average ratio of the external circumference of fibrosis area to LV area.

left ventricle fibrosis = conditions: two weeks after AMI
Method: as §3, §4

mice after AMI = test system: mice after AMI
Method: as §1
All values were expressed as mean±the standard error of the mean. Statistical significance was evaluated using Wilcoxon Rank Sum Test for comparisons between mice receiving AMD3100 and those receiving saline. Overall survival of all the mice was assessed by Kaplan-Meier analysis. Survival in individual experimental groups was also analyzed by Fisher's extract probability test. A p value of less than 0.05 was considered statistically significant.

[3] = test system: BS lectin 1 and β-gal double-positive cells; conditions: one week after AMI; 400×
Method: Apex-sections from the Tie-2/LZ/BMT mice were embedded in OCT compound (Miles Scientific) and snap-frozen in liquid nitrogen for fluorescence microscopy immediately after sacrifice. Immunohistochemical staining was performed using antibodies against the rabbit anti-B-galactosidase IgG (CORTEX Biochem) and the murine-specific EC marker fluorescein griffonia simplicifolia lectin I (Vector Laboratories).
Sections of ischemic (FIGS. 12A-12F) and intact (FIGS. 13A-13F) myocardium were stained for both BS lectin 1 (green fluorescence) and β-galactosidase (red fluorescence).

[4] = test system: X-gal positive cells (bone-marrow derived endothelial cells) in left ventricle; conditions: for number of X-gal positive cells: infarct and border area, Tie2-LacZ/BMT mice
Source text: This Example describes the experimental design of the Tie2-LacZ/BMT mouse model. […] FVB/N background mice (n=30) were irradiated to kill their endogenous bone marrow. They were then given a bone marrow transplant (BMT) of 2×10^6 mononuclear cells (MNCs) derived from age-matched (4 weeks old) Tie2-LacZ mice (FVB/N-TgN[TIE2LacZ]182Sato, Jackson Lab). AMIs were induced in the mice (now called Tie2-LacZ/BMT mice) by LAD ligation four weeks after BMT, by which time the bone marrow of the recipient mice had been reconstituted. Right after AMI, the mice were each given a single subcutaneous injection of AMD-3100 (125 μg) or saline (control). Bone marrow cells were obtained using procedures described above. Bone marrow mononuclear cells were also isolated by density centrifugation. Tissue analysis was done at one or two weeks.
Tie-2/LZ/BMT mice were sacrificed at one and two weeks after MI. The explanted hearts were sliced in a bread-loaf fashion into transverse sections from apex to base (base-, mid-, and apex-portions). Mid-portions of the hearts were fixed in 4% paraformaldehyde for three hours at room temperature and incubated in X-gal solution overnight at 37° C. The target tissue samples were then placed in PBS [need to spell this out] and examined under a dissecting microscope for macroscopic identification of lacZ-expressing cells. Histological sections of the mid-portion heart tissue were counterstained with hematoxylin and eosin and assessed by light microscopy. The number of X-gal positive cells in six randomly chosen fields at 40× magnification were counted in a blinded manner.
Left ventricle sections of AMD-3100-treated and control Tie2-LacZ/BMT mice were analyzed one and two weeks after AMI. […] The quantitative analysis of X-gal positive cells was evaluated by histological examination of six randomly selected fields in the infarct and border area.

[5] = test system: endothelial progenitor cells (EPCs) in peripheral blood
Method: as §2

MMP-2 = conditions: one week after MI; RT-PCR
Method: To clarify the mechanism of BM-EPC kinetics induced by AMD3100, RT-PCR was performed for MMP-9 mRNA expression on BM-mononuclear cells one week after MI was performed. RNA was extracted from mononuclear cells isolated from bone marrow using TRIzol reagent (Invitrogen) according to the manufacture's instruction. Reverse transcriptase-polymerase chain reaction (RT-PCR) of the MMP-9 and GAPDH genes was performed using 1 μg of total RNA. PCR was performed for 25 cycles for both MMP-9 and GAPDH; each cycle maintained 94° C. for 30 seconds and 64° C. for three minutes. Amplification was carried out in 20-μl reaction mixtures containing 0.4 U Taq polymerase.

[6] = test system: EPCs isolated from peripheral blood; conditions: one week after MI
Method: (§5) Fluorescence-activated cell sorting (FACS) was used to identify EPCs from mononuclear cells isolated both from peripheral blood and bone marrow. The viable mononuclear cell population was analyzed for the expression of Sca-1-FITC (Pharmingen) and Flk-1 (Santa Cruz) conjugated with the corresponding phycoerythrin-labeled secondary antibody (Sigma). Isotype-identical antibodies served as negative controls. Immunofluorescence-labeled cells were fixed with 2% paraformaldehyde and analyzed by quantitative flow cytometry using a FACStar flow cytometer (Becton Dickinson) and Cell Quest Software that counted 10,000 events per sample.

[7] = test system: EPCs in BM mononuclear cells; conditions: one week after MI
Method: as §5

[8] = 1 week after MI, 125 μg s.c. after MI
[9] = 2 weeks after MI, 125 μg s.c. after MI
[10] = 2 weeks after MI, 125 μg s.c. after MI, listed as AMD
[11] = 4 weeks after MI, 125 μg s.c. after MI
[12] = 4 weeks after MI, 125 μg s.c. after MI, listed as AMD

c1cc(CN2CCCNCCNCCCNCC2)ccc1CN1CCCNCCNCCCNCC1 [AMD-3100, 1,1′-[1,4-phenylene-bis(methylene)]-bis-1,4,8,11-tetraazacyclotetradecane]
FS (fractional shortening) [1, 8]: 35 ± 2% | HR (heart rate) [1, 8]: 494 ± 24 bpm | LVDd [1, 8]: 3.5 ± 0.1 mm | LVDs [1, 8]: 2.2 ± 0.1 mm | FS (fractional shortening) [1, 9]: 34±1% | HR (heart rate) [1, 9]: 515 ± 16 bpm | LV +dP/dt [1, 9]: 3383±104 mm Hg/s | LV −dP/dt [1, 9]: 2213±113 mm Hg/s | LVDd [1, 9]: 3.8±0.1 mm | LVDs [1, 9]: 2.5±0.1 mm | LVEDP [1, 9]: 1.6±0.4 mmHg | LVSP [1, 9]: 71±2 mmHg | FS (fractional shortening) [1, 10]: 34±1% | LV +dP/dt [1, 10]: 3475±168 mm Hg/s | LV −dP/dt [1, 10]: 2842 ± 200 mm Hg/s | LVDd [1, 10]: 3.8 ± 0.1 mm | LVDs [1, 10]: 2.5 ± 0.1 mm | LVEDP [1, 10]: 1.5±0.2 mmHg | LVSP [1, 10]: 73 ± 3 mmHg | LVDd ([1]; 2 weeks after MI, 125 μg s.c. after MI, listed as AMD3100): 3.8±0.1 mm | LVDs ([1]; 3 wks after MI (as printed in text)): 2.5±0.2 mm | HR (heart rate) [1, 11]: 473 ± 26 bpm | LV −dP/dt [1, 11]: 2213 ± 112 mm Hg/s | LVDd [1, 11]: 4.0±0.1 mm | LVDs [1, 11]: 2.6±0.2 mm | FS (fractional shortening) [1, 12]: 28±1% | LV +dP/dt [1, 12]: 3383±104 mm Hg/s | LVDd [1, 12]: 4.0 ± 0.1 mm | LVDs [1, 12]: 2.9 ± 0.1 mm | LVEDP [1, 12]: 1.6±0.4 mmHg | LVSP [1, 12]: 71±2 mmHg | difference in heart rate between the two groups ([1]; after MI, vs control group): no significant difference | FS (fractional shortening) ([1]; before MI): 52 ± 1% | HR (heart rate) ([1]; before MI): 510 ± 26 bpm | LVDd ([1]; before MI): 2.8 ± 0.1 mm | LVDs ([1]; before MI): 1.4 ± 0.1 mm | LVDd, LVDs, fractional shortening, and heart rate, difference between the groups ([1]; before MI and one week after MI, vs saline): not significantly different | difference in LVSP between the groups ([1]; two weeks after MI, vs control): no significant difference | number of cultured EPCs (EPCs in peripheral blood; four weeks after AMI): returned to basline | number of EPCs in peripheral blood (EPCs in peripheral blood; one week after AMI): 868±210 /mm^2 | number of EPCs in peripheral blood (EPCs in peripheral blood; two weeks after AMI): 556±47 /mm^2 | capillary density in border zone [2]: 4005±189 /mm^2 | fibrosis area of left ventricle (left ventricle fibrosis): 25±6% | mice still living (mice after AMI; 14 weeks after AMI (so in the source), FIG. 4A): 64% | mice died (mice after AMI; another group of mice, four weeks after MI, FIG. 4B): 42% | survival rate vs mice receiving saline (mice after AMI; four weeks after MI, FIG. 4B): higher | double-positive cells in a representative section [3]: eight | double-positive cells in another representative section [3]: eight | double-positive cells in tissue (merged fluorescence microscopy) [3]: marked increase | number of X-gal positive cells ([4]; 1 week after AMI): 3776±113 /mm2 | number of X-gal positive cells ([4]; 2 weeks after AMI): 1906±138 μmm2 | X-gal staining of the left ventricle (macroscopic) vs controls ([4]; one and two weeks after AMI): marked increase | maximal MNCs and EPCs (number) ([5]; 1 hour after single s.c. injection of 125 μg, FVB/N mice, peripheral blood): 613±89 cells/mm^2 | time until MNC/EPC numbers returned to baseline ([5]; after single s.c. injection of 125 μg): ≤ 24 h | time of maximal MNCs and EPCs after drug administration ([5]; single s.c. injection of 125 μg): 1 h | expression of MMP-2 in BM mononuclear cells (MMP-2): not | EPCs (Sca-1/Flk-1 double positive) in peripheral blood by FACS [6]: 11.3±1.4% | EPCs (Sca-1/Flk-1 positive) in BM mononuclear cells by FACS [7]: 1.9±0.1%
